Laboratory results published in ChEMBL document CHEMBL3124777, “Synthesis and biological evaluation of thiazoline derivatives as new antimicrobial and anticancer agents” (Eur J Med Chem, 2014).
Converted amounts (≈) assume the structure as drawn.

How the values were obtained:
[1] = system: C6; assay: Cytotoxicity against rat C6 cells assessed as cell viability at 6 ug/ml after 24 hrs by MTT assay relative to control; assay type: functional; settings: C6, 24 h, read-out: Activity
[2] = system: Staphylococcus aureus; assay: Antimicrobial activity against Staphylococcus aureus NRRL B-767 after 18 to 24 hrs by microbroth dilution method; assay type: functional
[3] = system: Listeria monocytogenes; assay: Antimicrobial activity against Listeria monocytogenes ATCC 7644 after 18 to 24 hrs by microbroth dilution method; assay type: functional
[4] = system: Fusarium culmorum; assay: Antimicrobial activity against wild type Fusarium culmorum after 48 to 72 hrs by microbroth dilution method; assay type: functional
[5] = system: Trichoderma harzianum; assay: Antimicrobial activity against Trichoderma harzianum NRRL 20565 after 48 to 72 hrs by microbroth dilution method; assay type: functional
[6] = system: NIH3T3; assay: Cytotoxicity against mouse NIH/3T3 cells after 24 hrs by MTT assay; assay type: cell-based; settings: NIH3T3, 24 h
[7] = system: Micrococcus luteus; assay: Antimicrobial activity against Micrococcus luteus NRLL B-4375 after 18 to 24 hrs by microbroth dilution method; assay type: functional
[8] = system: C6; assay: Cytotoxicity against rat C6 cells after 24 hrs by MTT assay; assay type: functional, cell-based; settings: C6, 24 h
[9] = system: C6; assay: Cytotoxicity against rat C6 cells assessed as cell viability at 100 ug/ml after 24 hrs by MTT assay relative to control; assay type: functional; settings: C6, 24 h, read-out: Activity
[10] = system: Fusarium verticillioides; assay: Antimicrobial activity against Fusarium moniliforme NRRL 1866 after 48 to 72 hrs by microbroth dilution method; assay type: functional
[11] = system: Aspergillus parasiticus; assay: Antimicrobial activity against Aspergillus parasiticus NRRL 465 after 48 to 72 hrs by microbroth dilution method; assay type: functional
[12] = system: Candida albicans; assay: Antimicrobial activity against Candida albicans ATCC 22019 after 18 to 24 hrs by microbroth dilution method; assay type: functional
[13] = system: C6; assay: Cytotoxicity against rat C6 cells assessed as cell viability at 50 ug/ml after 24 hrs by MTT assay relative to control; assay type: functional; settings: C6, 24 h, read-out: Activity
[14] = system: Pseudomonas aeruginosa; assay: Antimicrobial activity against Pseudomonas aeruginosa […] after 18 to 24 hrs by microbroth dilution method; assay type: functional
[15] = system: C6; assay: Cytotoxicity against rat C6 cells assessed as cell viability at 12 ug/ml after 24 hrs by MTT assay relative to control; assay type: functional; settings: C6, 24 h, read-out: Activity
[16] = system: Penicillium chrysogenum; assay: Antimicrobial activity against Penicillium chrysogenum NRRL 1951 after 48 to 72 hrs by microbroth dilution method; assay type: functional
[17] = system: Aspergillus ochraceus; assay: Antimicrobial activity against Aspergillus ochraceus NRRL 3174 after 48 to 72 hrs by microbroth dilution method; assay type: functional
[18] = system: Bacillus subtilis; assay: Antimicrobial activity against Bacillus subtilis NRS-744 after 18 to 24 hrs by microbroth dilution method; assay type: functional
[19] = system: C6; assay: Cytotoxicity against rat C6 cells assessed as cell viability at 25 ug/ml after 24 hrs by MTT assay relative to control; assay type: functional; settings: C6, 24 h, read-out: Activity
[20] = system: Escherichia coli; assay: Antimicrobial activity against Escherichia coli ATCC 25922 after 18 to 24 hrs by microbroth dilution method; assay type: functional
[21] = system: C6; assay: Cytotoxicity against rat C6 cells assessed as cell viability at 200 ug/ml after 24 hrs by MTT assay relative to control; assay type: functional; settings: C6, 24 h, read-out: Activity
[22] = system: Fusarium solani; assay: Antimicrobial activity against Fusarium solani NRRL 13414 after 48 to 72 hrs by microbroth dilution method; assay type: functional

SMILES | MIC [2] | MIC [3] | MIC [4] | MIC [5] | MIC [7] | MIC [10] | MIC [11] | MIC [12] | MIC [14] | MIC [16] | MIC [17] | MIC [18] | MIC [20] | viability at 6 µg/mL [1] | IC50 [6] | IC50 [8] | viability at 100 µg/mL [9] | viability at 50 µg/mL [13] | viability at 12 µg/mL [15] | viability at 25 µg/mL [19] | further results
O=C(CSc1ncccn1)N/N=c1/scc(-c2ccc(Br)cc2)n1-c1ccccc1 | 500 µg/mL (≈ 1000 µM) | 250 µg/mL (≈ 502 µM) | 250 µg/mL (≈ 502 µM) | 250 µg/mL (≈ 502 µM) | 250 µg/mL (≈ 502 µM) | 250 µg/mL (≈ 502 µM) | 250 µg/mL (≈ 502 µM) | 250 µg/mL (≈ 502 µM) | 250 µg/mL (≈ 502 µM) | 250 µg/mL (≈ 502 µM) | 250 µg/mL (≈ 502 µM) | 250 µg/mL (≈ 502 µM) | 250 µg/mL (≈ 502 µM) | 76.4% | 273 µg/mL (≈ 548 µM) | > 200 µg/mL | 67.6% | 69% | 72.1% | 72.3% | viability at 200 µg/mL [21]: 63.2%; MIC [22]: 250 µg/mL (≈ 502 µM)
Cc1ccc(-c2cs/c(=N/NC(=O)CSc3nncn3C)n2-c2ccccc2)cc1 | 250 µg/mL (≈ 573 µM) | 250 µg/mL (≈ 573 µM) | 250 µg/mL (≈ 573 µM) | 125 µg/mL (≈ 286 µM) | 125 µg/mL (≈ 286 µM) | 250 µg/mL (≈ 573 µM) | 250 µg/mL (≈ 573 µM) | 125 µg/mL (≈ 286 µM) | 250 µg/mL (≈ 573 µM) | 250 µg/mL (≈ 573 µM) | 250 µg/mL (≈ 573 µM) | 250 µg/mL (≈ 573 µM) | 125 µg/mL (≈ 286 µM) | 74.6% | 130 µg/mL (≈ 298 µM) | 56 µg/mL (≈ 128 µM) | 39.6% | 53.8% | 72% | 70.7% | viability at 200 µg/mL [21]: 27.8%; MIC [22]: 250 µg/mL (≈ 573 µM)
Cn1nnnc1SCC(=O)N/N=c1/scc(-c2ccccc2)n1-c1ccccc1 | 250 µg/mL (≈ 590 µM) | 250 µg/mL (≈ 590 µM) | 250 µg/mL (≈ 590 µM) | 125 µg/mL (≈ 295 µM) | 250 µg/mL (≈ 590 µM) | 250 µg/mL (≈ 590 µM) | 250 µg/mL (≈ 590 µM) | 250 µg/mL (≈ 590 µM) | 250 µg/mL (≈ 590 µM) | 250 µg/mL (≈ 590 µM) | 250 µg/mL (≈ 590 µM) | 250 µg/mL (≈ 590 µM) | 250 µg/mL (≈ 590 µM) | 85.2% | 173 µg/mL (≈ 409 µM) | 67.7 µg/mL (≈ 160 µM) | 38.8% | 56.2% | 80.7% | 64.2% | viability at 200 µg/mL [21]: 26.8%; MIC [22]: 250 µg/mL (≈ 590 µM)

More lines, in order of falling MIC [2], values ahead:

MIC [2] | MIC [3] | MIC [4] | MIC [5] | MIC [7] | MIC [10] | MIC [11] | MIC [12] | MIC [14] | MIC [16] | MIC [17] | MIC [18] | MIC [20] | SMILES | viability at 6 µg/mL [1] | IC50 [6] | IC50 [8] | viability at 100 µg/mL [9] | viability at 50 µg/mL [13] | viability at 12 µg/mL [15] | viability at 25 µg/mL [19] | further results
500 µg/mL (≈ 979 µM) | 250 µg/mL (≈ 490 µM) | 250 µg/mL (≈ 490 µM) | 250 µg/mL (≈ 490 µM) | 250 µg/mL (≈ 490 µM) | 250 µg/mL (≈ 490 µM) | 250 µg/mL (≈ 490 µM) | 250 µg/mL (≈ 490 µM) | 250 µg/mL (≈ 490 µM) | 250 µg/mL (≈ 490 µM) | 250 µg/mL (≈ 490 µM) | 250 µg/mL (≈ 490 µM) | 250 µg/mL (≈ 490 µM) | N#Cc1ccc(-c2cs/c(=N/NC(=O)CSc3nnnn3-c3ccccc3)n2-c2ccccc2)cc1 | 78.8% | 453 µg/mL (≈ 888 µM) | > 200 µg/mL | 59.8% | 61.1% | 74.1% | 64.2% | viability at 200 µg/mL [21]: 54%; MIC [22]: 250 µg/mL (≈ 490 µM)
500 µg/mL (≈ 1140 µM) | 250 µg/mL (≈ 569 µM) | 250 µg/mL (≈ 569 µM) | 125 µg/mL (≈ 284 µM) | 250 µg/mL (≈ 569 µM) | 250 µg/mL (≈ 569 µM) | 250 µg/mL (≈ 569 µM) | 250 µg/mL (≈ 569 µM) | 250 µg/mL (≈ 569 µM) | 250 µg/mL (≈ 569 µM) | 250 µg/mL (≈ 569 µM) | 500 µg/mL (≈ 1140 µM) | 250 µg/mL (≈ 569 µM) | Cc1nnc(SCC(=O)N/N=c2/scc(-c3ccccc3)n2-c2ccccc2)s1 | 72.4% | 197 µg/mL (≈ 447 µM) | > 200 µg/mL | 61.8% | 63.9% | 72.5% | 65.9% | viability at 200 µg/mL [21]: 59.2%; MIC [22]: 250 µg/mL (≈ 569 µM)
